Assay results reported in US12168763B2, “Microorganisms and methods for reducing bacterial contamination” (Melio Peptide Systems Inc., priority 2020, dated 2024).
“Also recorded” adds a separate entry of the source. Where no end group is shown, it is not given here.

Key:
[1] = tested on: L. delbrueckii CCUG 34222T; assay: Soft-agar overlay assay of S. cerevisiae M2 strain expressing pediocin PA-1 variants; details: S. cerevisiae M2 transformants; compared to wild-type pediocin PA-1
[2] = tested on: P. pentosaceus NCCB 31016; assay: as above; details: S. cerevisiae M2 transformants; compared to wild-type pediocin PA-1
L. reuteri CCUG 32624 = assay: Soft-agar overlay screen of peptide-expressing yeast (BY4742)
W. confusa CCUG30943 = assay: as above
Lactobacillus amylovorus = assay: Soft-agar overlay screen of peptide-expressing yeast, other lactic acid bacteria; assay type: cell-based; details: sometimes weak
L. fermentum NCCB 46038 [3] = assay: Soft-agar overlay screen of peptide-expressing yeast (BY4742)
L. lactis NCCB 26066 = assay: as above
W. confusa CCUG30113 = assay: as above
Lactobacillus casei = assay: Soft-agar overlay screen of peptide-expressing yeast, other lactic acid bacteria; assay type: cell-based; details: sometimes weak
E. faecium NCCB 86023 = assay: Soft-agar overlay screen of peptide-expressing yeast (BY4742)
[4] = tested on: P. pentosaceus NCCB 31016; assay: as above; details: soft-agar overlay, peptide-expressing yeast
[5] = tested on: L. delbrueckii CCUG 34222; assay: as above
L. fermentum NCCB 46038 [6] = assay: Soft-agar overlay assay of S. cerevisiae BY4742 secreting persulcatusin variants from pHVXU plasmids; details: for Growth inhibition zones of L. fermentum: FIG. 7, BY4742 with pHVXU plasmids, 30° C., 1 day; for Increase in Activity: random mutagenesis clones of persulcatusin, increase of growth inhibition zones; for Change in activity: alanine scanning of persulcatusin, relative to wild-type, soft-agar overlay

| Substance | Growth inhibition zone (halo) of L. delbrueckii [1] | Growth inhibition zone (halo) of P. pentosaceus [2] | Inhibition, L. reuteri CCUG 32624 (L. reuteri CCUG 32624) | Inhibition, W. confusa CCUG30943 (W. confusa CCUG30943) | Inhibition, L. fermentum NCCB 46038 (L. fermentum NCCB 46038 [3]) | Inhibition, L. lactis NCCB 26066 (L. lactis NCCB 26066) | Inhibition, W. confusa CCUG30113 (W. confusa CCUG30113) | Inhibition, E. faecium NCCB 86023 (E. faecium NCCB 86023) | Inhibition, P. pentosaceus NCCB 31016 [4] | Inhibition, L. delbrueckii CCUG 34222 [5] | further results |
| --- | --- | --- | --- | --- | --- | --- | --- | --- | --- | --- | --- |
| Engineered pediocin PA-1 with [pediocin PA-1 K1A/K20A, Engineered pediocin PA-1 with [K1A/K20A]] | Growth inhibition zones of P. pentosaceus and L. delbrueckii were observable | Growth inhibition zones of P. pentosaceus and L. delbrueckii were observable |  |  |  |  |  |  |  |  |  |
| Engineered persulcatusin with [Mutation S7-192-1, Engineered persulcatusin with [F6L/G9D/R13S/H14Q]] |  |  | + | + | + | − | + | − | − | − | Antibacterial activity against Lactobacillus amylovorus (Lactobacillus amylovorus): showed some antibacterial activity; Antibacterial activity against Lactobacillus casei (Lactobacillus casei): showed some antibacterial activity; Growth inhibition zones of L. fermentum (L. fermentum NCCB 46038 [6]): significantly bigger zones; Increase in Activity (L. fermentum NCCB 46038 [6]): ++++ |
| Enterocin A |  |  | − | − | − | + | − | − | + | + |  |
| Engineered pediocin PA-1 with [S15A] (KYYGNGVTCGKHSCAVDWGKATTCIINNGAMAWATGGHQGNHKC; ends and bridges not checked; cysteine pairing not given here) [pediocin PA-1 S15A] | Growth inhibition zones of L. delbrueckii were observable | Growth inhibition zones of P. pentosaceus were observable |  |  |  |  |  |  |  |  |  |
| Bactofencin A |  |  | − | − | + | + | − | + | + | + |  |
| Leucocin C |  |  | − | − | − | + | − | + | + | + |  |
| Engineered pediocin PA-1 with [pediocin PA-1 K1T, Engineered pediocin PA-1 with [K1T]] | slightly bigger halo than wild-type pediocin PA-1; also recorded: Growth inhibition zones were observable |  |  |  |  |  |  |  |  |  |  |
| Ubericin A |  |  | − | − | − | + | − | − | + | + |  |
| Engineered pediocin PA-1 with [S13A] (KYYGNGVTCGKHACSVDWGKATTCIINNGAMAWATGGHQGNHKC; ends and bridges not checked; cysteine pairing not given here) [pediocin PA-1 S13A] | Growth inhibition zones of L. delbrueckii were observable | Growth inhibition zones of P. pentosaceus were observable |  |  |  |  |  |  |  |  |  |
| Engineered pediocin PA-1 with [K20A] (KYYGNGVTCGKHSCSVDWGAATTCIINNGAMAWATGGHQGNHKC; ends and bridges not checked; cysteine pairing not given here) [pediocin PA-1 K20A] | Growth inhibition zones of L. delbrueckii were observable | Growth inhibition zones of P. pentosaceus were observable |  |  |  |  |  |  |  |  |  |
| Wild-type persulcatusin [Wild-type persulcatusin [Ixodes persulcatus]] |  |  | − | − | + | − | + | − | − | − | Growth inhibition zones of L. fermentum (L. fermentum NCCB 46038 [6]): Growth inhibition zones of L. fermentum are observable |
| Engineered pediocin PA-1 with [pediocin PA-1 K1A, Engineered pediocin PA-1 with [K1A]] | largest halo | largest halo |  |  |  |  |  |  |  |  |  |
| Engineered pediocin PA-1 with [pediocin PA-1 T22A, Engineered pediocin PA-1 with [T22A]] |  | Growth inhibition zones of P. pentosaceus were observable |  |  |  |  |  |  |  |  |  |
| Engineered pediocin PA-1 with [pediocin PA-1 G19A, Engineered pediocin PA-1 with [G19A]] |  | Growth inhibition zones of P. pentosaceus were observable |  |  |  |  |  |  |  |  |  |
| Engineered pediocin PA-1 with [pediocin PA-1 K1A/S13A, Engineered pediocin PA-1 with [K1A/S13A]] | Growth inhibition zones of P. pentosaceus and L. delbrueckii were observable | Growth inhibition zones of P. pentosaceus and L. delbrueckii were observable |  |  |  |  |  |  |  |  |  |
| Engineered pediocin PA-1 with [pediocin PA-1 K1A/G19A, Engineered pediocin PA-1 with [K1A/G19A]] | Growth inhibition zones of P. pentosaceus and L. delbrueckii were observable | Growth inhibition zones of P. pentosaceus and L. delbrueckii were observable |  |  |  |  |  |  |  |  |  |
| Engineered pediocin PA-1 with [pediocin PA-1 K1A/T22A, Engineered pediocin PA-1 with [K1A/T22A]] |  | largest halo |  |  |  |  |  |  |  |  |  |
| Engineered pediocin PA-1 with [pediocin PA-1 K1A/S15A, Engineered pediocin PA-1 with [K1A/S15A]] | Growth inhibition zones of P. pentosaceus and L. delbrueckii were observable | Growth inhibition zones of P. pentosaceus and L. delbrueckii were observable |  |  |  |  |  |  |  |  |  |
| Hiracin JM79 |  |  | − | − | − | − | − | + | − | − |  |
| Engineered persulcatusin with [Mutation S7-144-75, Engineered persulcatusin with [R13S/A26D]] |  |  |  |  |  |  |  |  |  |  | Increase in Activity (L. fermentum NCCB 46038 [6]): ++ |
| Engineered persulcatusin with [Mutation R21A, Engineered persulcatusin with [R21A]] |  |  |  |  |  |  |  |  |  |  | Change in activity (L. fermentum NCCB 46038 [6]): + |
| Coagulin A |  |  | − | − | − | + | − | + | + | + |  |
| Engineered persulcatusin with [Mutation S-176-2-1, Engineered persulcatusin with [F6V/R13S]] |  |  |  |  |  |  |  |  |  |  | Increase in Activity (L. fermentum NCCB 46038 [6]): ++ |
| T34A: persulcatusin (SEQ ID NO: 1) alanine-scan variant T34A (GFGCPFNQGACHRHCRSIGRRGGYCAGLFKQTCACYSR; listed as Ixodes persulcatus) [Mutation T34A] |  |  |  |  |  |  |  |  |  |  | Change in activity (L. fermentum NCCB 46038 [6]): − |
| Engineered persulcatusin with [Mutation S7-144-4, Engineered persulcatusin with [G9D/R20S]] |  |  |  |  |  |  |  |  |  |  | Increase in Activity (L. fermentum NCCB 46038 [6]): ++ |
